For orientation: pIC50 means the IC50 on a negative log10 scale, so that one unit is a factor of ten.

The record followed here is patent publication US8975265B2, “Substituted imidazo[1,2-a]pyrimidines and —pyridines” (Bayer Intellectual Property GmbH, priority 2010, dated 2015).

Assay [1] addresses His-tagged human recombinant kinase full-length Akt1 (Homo sapiens (Human), UniProt P31749). Kind of assay: Akt1 kinase assay (TR-FRET). Format: biochemical. To be noted: 10 μM ATP; read-out: Akt1, median IC50. A digest of the protocol: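 Full-length His-tagged Akt1 (about 0.05 ng/μl final) preincubated 15 min at 22 °C with compound in 50 mM TRIS/HCl pH 7.5, 5 mM MgCl2, 1 mM DTT, 0.02% Triton X-100; biotinylated peptide substrate. Phosphopeptide detected by TR-FRET (Eu-chelate antibody to streptavidin-XL665) after 1 h at 22 °C.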
A general note: TR-FRET usually uses a lanthanide donor and a delayed reading to cut background.

In assay [2] the test system is KPL-4 breast cancer cell line. The assay is described as follows: Tumor cell proliferation assay (CellTiter-Glo, 72 h), KPL-4. In kind it is cell-based. To be noted: KPL4, 72h drug exposure. A digest of the protocol:
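KPL-4 cells were treated with compound for 72 h at 37°C. Viability was measured as ATP by CellTiter-Glo luminescence, with a separate t=0 plate read after overnight attachment. A reference compound was run as standard.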

The test system of assay [3] is p-4E-BP1-T70 in KPL4 breast tumour cell line. The assay is described as follows: Cellular p-4E-BP1-T70 assay. The conditions noted are these: 2 hours treatment, read-out: P4EBP1-T70 median IC50. In kind it is cell-based. The protocol: The molecular mechanism of action was investigated in a set of experiments to assess the inhibition of the PI3K-AKT-mTOR pathway in responsive cell lines such as KPL4 breast tumour cell line (PIK3CAH1047R, HER20/E and hormone independent). The phospho-substrates of PI3K-AKT-mTOR axis were used as the read-outs to reflect pathway inhibition. Cells were seeded at 60-80% confluency per well in 96-well cell culture plates. After overnight incubation at 37° C. 5% CO2, cells were treated with compounds and vehicle at 37° C. for 2 hours. Thereafter, cells were lysed in 150 μl lysis buffer and the levels of phospho-AKT at T308 and S473 and p-4E-BP1 at T70 sites were determined with the corresponding AlphaScreen® SureFire® assay kits (Perkin Elmer: 4E-BP1 Assay Kit Cat # TRG4E2S10K; Akt 1/2/3 p-Ser 473 #TGRA4S500 and Akt 1/2/3 p-Thr 308 #TGRA3S500 as well as IgG detection Kit #6760617M) as described in the manuals. All measurements where at least done in duplicates and confirmed by independent repetition.

The subject of assay [4] is p-AKT1/2/3-S473 in KPL4 breast tumour cell line. Kind of assay: Cellular p-AKT1/2/3-S473 assay. Format: cell-based. The conditions noted are these: KPL4 breast tumour cell line, 2 hours treatment; read-out: pAKT-S743 median IC50. A digest of the protocol: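 KPL4 cells (PIK3CA H1047R, HER2 0/E, hormone independent) were seeded at 60–80% confluency, cultured overnight, then exposed to compound for 2 h at 37 °C. pAKT-S473 and total AKT measured together by MSD Akt Duplex on 20 µg extract; pAKT expressed as % of total AKT, at least duplicate with independent repeats.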

Assay [5] has as its system MCF7. The assay is described as follows: Tumor cell proliferation assay (CellTiter-Glo, 72 h), MCF7. To be noted: Homo sapiens, 72h drug exposure. In kind it is cell-based. Here is the method: Compounds were tested in a cell-based assay that measures the capacity of the compounds to inhibit tumour cell proliferation following a 72h drug exposure. Cell viability is determined using CellTiter-Glow® (CTG, Promega, cat# G7571/2/3). The CellTiter-Glo® Luminescent Cell Viability Assay is a homogeneous method to determine the number of viable cells in culture. Detection is based on using the luciferase reaction to measure the amount of ATP from viable cells. The amount of ATP in cells correlates with cell viability. Within minutes after a loss of membrane integrity, cells lose the ability to synthesize ATP, and endogenous ATPases destroy any remaining ATP; thus the levels of ATP fall precipitously.
Cells were plated at 3000-5000 cells/well (depending on the cell lines) in 90 μL growth medium on MTPs (Corning; #3603, black plate, clear flat bottom). For each cell line assayed, cells were plated onto a separate plate for determination of […] at t=0 hour and t=72 hour time points. Following overnight incubation at 37° C., chemiluminescence values for the t=0 samples were determined after adding 10 μl medium and 100 μl CTG solution according to manufacture protocol. Plates for the t=72 hour time points were treated with compounds diluted into growth medium at ten times final concentration added in 10 μL to the cell culture plate. Cells were then incubated for 72 hours at 37° C. Chemiluminescence values for the t=72 hour samples were determined. […] Experiments were controlled using a reference compound as standard.
In general terms: In ATP-based viability assays light output follows the ATP content of the culture.

SMILES strings stand for the structures. pIC50: −log10 of the molar value.

Chain of His-tagged human recombinant kinase full-length Akt1 (P31749 whole entry): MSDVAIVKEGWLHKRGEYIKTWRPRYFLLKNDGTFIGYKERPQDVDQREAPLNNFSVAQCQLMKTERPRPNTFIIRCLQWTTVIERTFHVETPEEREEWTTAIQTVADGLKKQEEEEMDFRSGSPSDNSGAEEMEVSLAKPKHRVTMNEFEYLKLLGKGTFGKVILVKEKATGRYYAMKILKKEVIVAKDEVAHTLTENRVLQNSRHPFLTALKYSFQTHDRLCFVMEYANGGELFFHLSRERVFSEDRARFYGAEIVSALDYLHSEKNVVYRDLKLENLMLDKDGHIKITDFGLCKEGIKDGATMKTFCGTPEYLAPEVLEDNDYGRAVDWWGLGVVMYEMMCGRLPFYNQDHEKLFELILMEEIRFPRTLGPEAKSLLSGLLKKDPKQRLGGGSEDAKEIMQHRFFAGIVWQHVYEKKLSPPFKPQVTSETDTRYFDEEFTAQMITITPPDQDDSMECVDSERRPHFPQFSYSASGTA

Regarding `N#Cc1ccc2nc(-c3ccc(C4(N)CCC4)cc3)c(-c3ccccc3)n2c1` [Example 1-10], the pIC50 in assay [1] was 6.54; in assay [2], 5.80; in assay [3] it was 5.69; in assay [4] it was 6.86.

Turning to `COC(=O)c1cc(OC)c2nc(-c3ccc(C4(N)CCC4)cc3)c(-c3ccccc3)n2c1` [Example 1-12], the pIC50 in assay [2] is 5.08; in assay [5] it was 6.10; in assay [4], 6.56.

Turning to `NC1(c2ccc(-c3nc4ccc(-n5cccn5)cn4c3-c3ccccc3)cc2)CCC1` [Example 1-16], the pIC50 was 5.70 in assay [2], 5.74 in assay [5] and 6.44 in assay [4].

Take `Cc1ccc2nc(-c3ccc(C4(N)CCC4)cc3)c(-c3ccccc3)n2c1` [Example 2-7]: the pIC50 in assay [1] was 6.69; in assay [2], 5.72; in assay [3] it was 5.40; in assay [4], 6.31.

For `NC1(c2ccc(-c3nc4c(-c5ccc(F)cc5)cccn4c3-c3ccccc3)cc2)CCC1` [Example 2-68, 1-{4-[8-(4-fluorophenyl)-3-phenyl-imidazo[1,2-a]pyridin-2-yl]-phenyl}-cyclobutylamine], the pIC50 was 6.51 in assay [1], 5.51 in assay [2], 5.72 in assay [5] and 6.13 in assay [4].

For `NC1(c2ccc(-c3nc4c(-c5cccc(F)c5)cccn4c3-c3ccccc3)cc2)CCC1` [Example 2-69], the pIC50 in assay [1] is 6.68; in assay [2] it was 5.54; in assay [5], 5.74; in assay [4] it was 6.10.

As for `COc1cncc(-c2cccn3c(-c4ccccc4)c(-c4ccc(C5(N)CCC5)cc4)nc23)c1` [Example 2-70], the pIC50 was 5.70 in assay [2], 5.80 in assay [5] and 6.53 in assay [4].

For the compound `NC1(c2ccc(-c3nc4c(-c5ccn[nH]5)cccn4c3-c3ccccc3)cc2)CCC1` [Example 2-71], the pIC50 in assay [1] is 7.19; in assay [2] it was 5.72; in assay [5], 5.80; in assay [4], 6.82.

Consider `NC1(c2ccc(-c3nc4c(-c5ccc6cn[nH]c6c5)cccn4c3-c3ccccc3)cc2)CCC1` [Example 2-72], for which the pIC50 was 6.41 in assay [1], 5.68 in assay [2], 5.77 in assay [5] and 6.09 in assay [4].

Take `Cc1ccn2c(-c3ccccc3)c(-c3ccc(C4(N)CCC4)cc3)nc2c1Cl` [Example 2-74]: the pIC50 in assay [2] was 5.85; in assay [3], 5.85; in assay [5], 5.80; in assay [4], 6.60.

For the compound `Cc1cc(Cl)cn2c(-c3ccccc3)c(-c3ccc(C4(N)CCC4)cc3)nc12` [Example 2-76], the pIC50 in assay [2] was 5.68; in assay [3], 5.71; in assay [5] it was 5.77; in assay [4] it was 6.24.

With `CCOC(=O)c1cc(Br)c2nc(-c3ccc(C4(N)CCC4)cc3)c(-c3ccccc3)n2c1` [Example 2-77], the pIC50 in assay [2] was 5.09; in assay [3] it was 5.77; in assay [5], 5.77; in assay [4], 6.32.

On to `NC1(c2ccc(-c3nc4c(Cl)cc(Cl)cn4c3-c3ccccc3)cc2)CCC1` [Example 2-78], for which the pIC50 in assay [2] was 5.72; in assay [3] it was 5.80; in assay [5], 5.96; in assay [4], 7.00.

With `COc1ccn2c(-c3ccccc3)c(-c3ccc(C4(N)CCC4)cc3)nc2c1C#N` [Example 2-79], the pIC50 in assay [2] was 6.05; in assay [3], 6.43; in assay [5], 6.30; in assay [4] it was 7.32.

With `NC1(c2ccc(-c3nc4cc(Cl)c(Cl)cn4c3-c3ccccc3)cc2)CCC1` [Example 2-80], the pIC50 in assay [2] was 5.70; in assay [3], 5.73; in assay [5] it was 5.74; in assay [4], 6.04.

For the compound `Cc1cc(Br)cn2c(-c3ccccc3)c(-c3ccc(C4(N)CCC4)cc3)nc12` [Example 2-82], the pIC50 in assay [2] is 5.68; in assay [3], 5.48; in assay [5], 5.77; in assay [4], 5.99.

As for `Cc1cc(Br)c2nc(-c3ccc(C4(N)CCC4)cc3)c(-c3ccccc3)n2c1` [Example 2-83], the pIC50 in assay [2] was 5.74; in assay [3] it was 6.21; in assay [5], 5.70; in assay [4], 6.72.

On to `Cc1c(Br)cn2c(-c3ccccc3)c(-c3ccc(C4(N)CCC4)cc3)nc2c1C` [Example 2-84], for which the pIC50 in assay [2] was 5.66; in assay [3] it was 5.50; in assay [5] it was 5.80; in assay [4], 5.87.

As to `NC1(c2ccc(-c3nc4c(Br)cc(C(F)(F)F)cn4c3-c3ccccc3)cc2)CCC1` [Example 2-86], the pIC50 in assay [2] was 5.70; in assay [3] it was 5.60; in assay [5] it was 5.74; in assay [4] it was 5.92.

On to `CC(=O)c1ccn2c(-c3ccccc3)c(-c3ccc(C4(N)CCC4)cc3)nc2c1` [Example 2-128], for which the pIC50 in assay [1] is 6.76; in assay [2] it was 5.36; in assay [5], 5.77; in assay [4], 6.33.

For `NC1(c2ccc(-c3nc4ccc(-c5ncc[nH]5)cn4c3-c3ccccc3)cc2)CCC1` [Example 2-130], the pIC50 in assay [1] is 6.49; in assay [2], 5.08; in assay [5] it was 5.74; in assay [4], 6.14.

As for `CC(=O)Nc1ccn2c(-c3ccccc3)c(-c3ccc(C4(N)CCC4)cc3)nc2c1` [Example 2-152], the pIC50 is 6.26 in assay [1], 5.74 in assay [2], 5.77 in assay [5] and 6.73 in assay [4].

Regarding `NC(=O)Nc1ccn2c(-c3ccccc3)c(-c3ccc(C4(N)CCC4)cc3)nc2c1` [Example 2-153], the pIC50 in assay [1] is 6.34; in assay [2], 5.00; in assay [5] it was 6.40; in assay [4], 5.79.

In the case of `CON(C)C(=O)c1ccn2c(-c3ccccc3)c(-c3ccc(C4(N)CCC4)cc3)nc2c1` [Example 2-154], the pIC50 is 5.67 in assay [1], 5.12 in assay [2], 5.77 in assay [5] and 6.14 in assay [4].

`NC(=O)Nc1ccc2nc(-c3ccc(C4(N)CCC4)cc3)c(-c3ccccc3)n2c1` [Example 2-157]: the pIC50 in assay [2] is 5.00; in assay [5] it was 5.96; in assay [4], 6.02.

`CNC(=O)Nc1ccc2nc(-c3ccc(C4(N)CCC4)cc3)c(-c3ccccc3)n2c1` [Example 2-158]: the negative logarithm of the IC50 (pIC50) in assay [1] was 6.49; in assay [2], 5.33; in assay [5], 5.77; in assay [4], 6.42.

Take `COc1cc(-c2cn[nH]c2)cn2c(-c3ccccc3)c(-c3ccc(C4(N)CCC4)cc3)nc12` [Example 13-0, 1-{4-[8-methoxy-3-phenyl-6-(1H-pyrazol-4-yl)-imidazo[1,2-a]pyridin-2-yl]-phenyl}-cyclobutylamine]: the negative-log IC50 (pIC50) in assay [1] is 7.09; in assay [2] it was 5.77; in assay [5] it was 6.05; in assay [4], 7.05.

As to `N#Cc1cc(Cl)c2nc(-c3ccc(C4(N)CCC4)cc3)c(-c3ccccc3)n2c1` [Example 15-0, 2-[4-(1-aminocyclobutyl)phenyl]-8-chloro-3-phenylimidazo[1,2-a]pyridine-6-carbonitrile], the pIC50 in assay [1] is 6.85; in assay [2], 5.89; in assay [5], 6.22; in assay [4], 7.52.
